Assay results from patent US20230414615A1, “PYRIMIDINONE COMPOUNDS FOR TREATING ACUTE INFLAMMATION” (TES Pharma S.r.l., priority 2022, published 2023).

How the values were obtained:
[1] = system: primary hepatocytes; assay: NAD+ biosynthesis in primary hepatocytes; assay type: cell-based
[2] = system: HK2 cells; assay: TGF-β-induced fibrosis in HK2 (renal tubular) cells; assay type: cell-based
Experimental: (§1) MATERIALS AND METHODS: Treatment with Compound I-18 in presence of LPS for 24 h has been performed to evaluate anti inflammatory properties and M1 to M2 transition. Renal tubular cells were stimulated with Compound I-18 and TGFβ for 16 hrs to evaluate the expression of genes involved in fibrosis. Compound 1-18 (50 mg/kg) was dosed daily in mice treated with LPS 15 mg/kg. Survival percentage and liver gene modulation has been monitored in Sham groups, LPS and LPS+Compound 1-18 groups (n=8). 12-15 week old mice underwent CLP (50% ligation, thru-and-thru puncture with 21G needle) to evaluate CLP-induced sepsis. Compound I-18 was dosed at the concentration of 50 mg/kg for 7 days from CLP. Survival percentage and expression of genes involved in renal inflammation has been monitored.

[3] = system: primary hepatocytes; assay: SIRT1 activation in primary hepatocytes; assay type: cell-based; details: 500 nM; 24 hrs after treatment
[4] = system: co-culture of primary hepatocytes and stellate cells; assay: Gene expression in co-culture of primary hepatocytes and stellate cells after free fatty acid mix; assay type: cell-based; details: 5 μM; after 6 hr exposure to palmitate (0.33 mM) and oleate (0.66 mM)
[5] = system: liver and kidneys; assay: Transcription of mitochondrial genes in liver and kidneys after administration of ACMSD inhibitors; assay type: in vivo
[6] = system: primary hepatocytes; assay: Gene expression / mRNA levels in primary hepatocytes; assay type: cell-based, mouse; details: mouse primary hepatocytes after 24 hr treatment
[7] = system: mouse primary hepatocytes; assay: SOD2 activity in mouse primary hepatocytes; assay type: cell-based; details: treatment for 24 hrs; stated as dose-dependent
[8] = system: Kupffer cells; assay: Gene expression (RT-PCR) in Kupffer cells; assay type: cell-based, mouse
Experimental: 200,000 Kupffer cells were plated out in a 24 well plate and the ACMSD inhibitor (e.g. compounds of present disclosure, compound of Formula I, Ia, Ib, and II) (5 μM) was added 1 hr before the cells were stimulated with LPS overnight 50 ng/ml (1 mg/mL stock solution in H2O, dispensed at 50 ng/mL in the well) final concentration. Cells treated with DMSO were used as control at the final concentration of 0.5% in medium. All the wells were normalized with DMSO at 0.5% final concentration. The supernatant was collected to measure cytokine secretion using a Bio-Plex Pro mouse cytokine 23-plex assay system (cat #M60009RDPD) using a Bio-Plex Instrument. The cells were washed once with PBS, and then lysed to extract total RNA for performing RT-PCR to evaluate ACMSD modulation of IL-10, SIRT1, and STAT3 gene expression.
Briefly, total RNA was extracted from the cells using the manufacturer's protocol for Qiagen RNeasy Plus Mini Kit (cat. 74134). The total RNA concentration was quantified using an Implen Instrument, and the purity was evaluated by measuring the ratio of A260/A280.
Total RNA (1 μg) was reverse transcribed using the manufacturer's protocol for SuperScript IV VILO Master Mix (ThermoFisher cat. #. 11756500). Real-time PCR was then performed in CFX 96 Real Time System (Bio-Rad) as follows: denaturation at 95° C. for 2 minutes, followed by 40 cycles at 95° C. for 10 s, and hybridization at 60° C. for 20 s. QPCR was performed using the 2× QuantiNova SYBR Green PCR Master Mix (Qiagen). Mouse β2 microglobulin (m 02M) was used as a reference gene.

[9] = system: HK2 primary tubule cells; assay: Gene expression in HK2 (HK-2) primary tubule cells, basal or after Cisplatin insult; assay type: cell-based
[10] = system: co-culture primary hepatocytes and Kupffer cells; assay: IL-6 secretion in co-culture of primary hepatocytes and Kupffer cells following LPS-induced inflammation; assay type: cell-based; details: LPS 50 ng/mL; stated as dose-dependent
[11] = system: Kupffer cells; assay: Cytokine secretion in Kupffer cells following LPS-induced inflammation (Bio-Plex); assay type: cell-based, mouse; details: LPS 50 ng/mL
From the text: […] Cells treated with DMSO were used as control at the final concentration of 0.5% in medium. All the wells were normalized with DMSO at 0.5% final concentration. The supernatant was collected to measure cytokine secretion using a Bio-Plex Pro mouse cytokine 23-plex assay system (cat #M60009RDPD) using a Bio-Plex Instrument. The cells were washed once with PBS, and then lysed to extract total RNA for performing RT-PCR to evaluate ACMSD modulation of IL-10, SIRT1, and STAT3 gene expression.
All cytokine secretion values were normalized to the luminescent signal relative to the measuring of the cellular ATP (CellTiter-Glo cat #G7571)).

[12] = mRNA levels of mitochondrial and oxidative stress genes (cell type not stated); assay type: cell-based; details: 100 μM
[13] = system: co-culture of primary hepatocytes and stellate cells; assay: Cytokine secretion in co-culture of primary hepatocytes and stellate cells following LPS-induced inflammation; assay type: cell-based; details: LPS 50 ng/mL
[14] = system: murine Kupffer cells; assay: M1/M2 polarisation of murine Kupffer cells treated with LPS; assay type: cell-based, mouse
Experimental: as §1

[15] = system: preclinical model of liver and kidney diseases; assay: Preclinical model of liver and kidney diseases (NASH, AKI); details: in vivo
[16] = system: human primary bone marrow mononuclear cells (BMMCs); assay: LPS-induced cytokine secretion in human primary bone marrow mononuclear cells (BMMCs); assay type: cell-based
[17] = cell system not restated (follows HK2 TGF-β experiment)
[18] = 100 μM, HK-2 cells following cisplatin-insult
[19] = murine Kupffer cells treated with LPS

For `N#Cc1c(-c2cccs2)nc(SCc2cccc(CC(=O)O)c2)[nH]c1=O` [Compound I-18], the “NAD+ biosynthesis” value [1] was “restores”, the SMAD4 expression ([2]; TGF-β-induced fibrosis in HK2 cells) was “less modulated” and the SMAD3 ([2]; both preventive and therapeutic treatment, TGF-β-induced fibrosis in HK2 cells) was “dose-dependent reduction”. For the same molecule, the “expression of TIMP2” value [2, 17] was “dose-dependent reduction”, the expression of fibronectin [2, 17] was “dose-dependent reduction” and the “in vitro fibrosis in renal cells” value ([2]; renal tubular cells stimulated with TGFβ for 16 hrs) was “reduced”. The SIRT1 activation [3] was “activate”, the “expression of TNFα” value [4] was “reduced” and the “expression of pro-fibrotic chemokine CTGF” value [4] was “reduces”. For the same molecule, the “expression of pro-fibrotic cytokine TGF-β” value [4] was “reduces”, the “expression of the pro-fibrotic genes BAX, ACTA2, Col1A1, fibronectin, THBS-1 and TIMP2” value [4] was “reduces” and the “expression of the same genes (Mcad, Cpt1a, Ndufa2, Atp5g1, Sod2) in the kidneys” value ([5]; kidneys) was “unaffected”. For the same molecule, the “transcription of the mitochondrial genes Mcad, Cpt1a, Ndufa2, Atp5g1 and Sod2 in the liver” value ([5]; liver) was “induces”, the “mRNA levels of mitochondrial genes TFAM, Ndufa, Uqcrc1, CytC, Atp5g1 and CS” value [6] was “increases” and the “activity of mitochondrial superoxide dismutase 2, SOD2” value [7] was “increases”. For the same molecule, the “expression of SIRT-1” value [8] was “increases”, the QPRT expression ([8]; inflammatory conditions (LPS at 50 ng/mL), beyond basal conditions) was “increases” and the “expression of IL-10” value ([8]; stated as dose-dependent) was “increases”. The “expression of STAT3” value ([8]; stated as dose-dependent) was “increases”, the “reduction of SIRT expression induced by a Cisplatin insult” value ([9]; 50 μM, HK2 primary tubule cells) was “reverses” and the “expression of OPA-1” value [9, 18] was “increases”. The “expression of SOD2” value [9, 18] was “increases”, the “expression of SIRT-3” value ([9]; HK2 primary tubule cells) was “increases” and the “mRNA levels of mitochondrial genes Sod1, Ndufa2, Cox2 and CytC” value ([9]; HK-2 cells after 24 hr treatment) was “increase”. The “secretion of IL-6” value [10] was “reduced”, the “secretion of IL-1β” value ([11]; 1 μM) was “reduces” and the “secretion of IL-6” value ([11]; 1 μM, incubation time 24 h) was “reduced”. For the same molecule, the “secretion of TNFα” value [11] was “reduces”, the “secretion of IL-6, dose dependence of the reduction” value ([11]; incubation time 24 h) was “in a dose-dependent manner” and the “mRNA levels of mitochondrial and oxidative stress genes CS, Ndufa2, Cox2, Atp5g1, Sod1 and Sod2” value [12] was “increases”. For the same molecule, the “secretion of IL-1β” value ([13]; 1 μM) was “reduces”, the “secretion of TNFα” value [13] was “reduces” and the “polarisation of resident liver macrophages (Kupffer cells) towards an M2 phenotype (M1-to-M2 transition)” value ([14]; in vitro, M1 induced by LPS) was “promoting their conversion”. For the same molecule, the “M1 phenotype gene markers iNOS, IL-6 and TNFα” value [14, 19] was “decrease”, the “M2 phenotype gene markers Arginase-1, Mannose Receptor (Mrc-2) and IL-10” value [14, 19] was “increase” and the “anti-inflammatory M2 Kupffer macrophages / M2 macrophage phenotype” value [14, 19] was “promotes”. The “pro-inflammatory M1 Kupffer macrophages” value ([14]; murine Kupffer cells treated with LPS, dose-response manner) was “blocks”, the M2 macrophage phenotype ([14]; two different stimuli (LPS and IL-4)) was “can promote” and the “effects in preclinical model of liver and kidney diseases, such as NASH and AKI” value [15] was “protective effects”. The “secretion of LPS-induced IL-6” value ([16]; 5 μM, human BMMCs) was “reduces” and the “secretion of TNFα” value ([16]; BMMC cells, LPS 50 ng/mL) was “reduces”.
